This note sets out measurements from ChEMBL document CHEMBL4028814, “Thiazolidine derivatives as potent and selective inhibitors of the PIM kinase family” (Bioorg Med Chem, 2017).

For test [1], the target named is Tyrosine-protein kinase BTK (Homo sapiens) (UniProt Q06187). The test is described as follows: Inhibition of full length wild type human BTK (M1 to S659 residues) expressed in mammalian expression system assessed as residual activity at 10 uM by KINOMEscan assay relative to control.
In test [2] the target is Serine/threonine-protein kinase PLK1 (Homo sapiens) (UniProt P53350). Description: Inhibition of partial length wild-type human PLK1 (A33 to F325 residues) expressed in mammalian expression system assessed as residual activity at 10 uM by KINOMEscan assay relative to control.
Test [3] has as its target Insulin receptor (Homo sapiens) (UniProt P06213). Description: Inhibition of partial length wild type human IR (P997 to E1318 residues) expressed in mammalian expression system assessed as residual activity at 10 uM by KINOMEscan assay relative to control.
In test [4] the target is Death-associated protein kinase 1 (Homo sapiens) (UniProt P53355). The test is described as follows: Inhibition of partial length wild type human DAPK1 (M1 to F296 residues) expressed in bacterial expression system assessed as residual activity at 10 uM by KINOMEscan assay relative to control.
In test [5] the target is Mast/stem cell growth factor receptor Kit (Homo sapiens) (UniProt P10721). Description: Inhibition of partial length wild type human c-Kit (I571 to D952 residues) expressed in bacterial expression system assessed as residual activity at 10 uM by KINOMEscan assay relative to control.
Test [6] concerns the target Receptor-type tyrosine-protein kinase FLT3 (Homo sapiens) (UniProt P36888). Description: Inhibition of partial length wild type human Flt3 (V592 to Y969 residues) expressed in bacterial expression system assessed as residual activity at 10 uM by KINOMEscan assay relative to control.
For test [7], the target named is Serine/threonine-protein kinase pim-3 (Homo sapiens) (UniProt Q86V86). Description: Inhibition of recombinant PIM3 (unknown origin) assessed as change in melting temperature at 10 uM by SYPRO orange dye-based differential scanning fluorimetry.

Receptor-type tyrosine-protein kinase FLT3 (Homo sapiens), sequence (P36888 whole entry, the tested form may be a part): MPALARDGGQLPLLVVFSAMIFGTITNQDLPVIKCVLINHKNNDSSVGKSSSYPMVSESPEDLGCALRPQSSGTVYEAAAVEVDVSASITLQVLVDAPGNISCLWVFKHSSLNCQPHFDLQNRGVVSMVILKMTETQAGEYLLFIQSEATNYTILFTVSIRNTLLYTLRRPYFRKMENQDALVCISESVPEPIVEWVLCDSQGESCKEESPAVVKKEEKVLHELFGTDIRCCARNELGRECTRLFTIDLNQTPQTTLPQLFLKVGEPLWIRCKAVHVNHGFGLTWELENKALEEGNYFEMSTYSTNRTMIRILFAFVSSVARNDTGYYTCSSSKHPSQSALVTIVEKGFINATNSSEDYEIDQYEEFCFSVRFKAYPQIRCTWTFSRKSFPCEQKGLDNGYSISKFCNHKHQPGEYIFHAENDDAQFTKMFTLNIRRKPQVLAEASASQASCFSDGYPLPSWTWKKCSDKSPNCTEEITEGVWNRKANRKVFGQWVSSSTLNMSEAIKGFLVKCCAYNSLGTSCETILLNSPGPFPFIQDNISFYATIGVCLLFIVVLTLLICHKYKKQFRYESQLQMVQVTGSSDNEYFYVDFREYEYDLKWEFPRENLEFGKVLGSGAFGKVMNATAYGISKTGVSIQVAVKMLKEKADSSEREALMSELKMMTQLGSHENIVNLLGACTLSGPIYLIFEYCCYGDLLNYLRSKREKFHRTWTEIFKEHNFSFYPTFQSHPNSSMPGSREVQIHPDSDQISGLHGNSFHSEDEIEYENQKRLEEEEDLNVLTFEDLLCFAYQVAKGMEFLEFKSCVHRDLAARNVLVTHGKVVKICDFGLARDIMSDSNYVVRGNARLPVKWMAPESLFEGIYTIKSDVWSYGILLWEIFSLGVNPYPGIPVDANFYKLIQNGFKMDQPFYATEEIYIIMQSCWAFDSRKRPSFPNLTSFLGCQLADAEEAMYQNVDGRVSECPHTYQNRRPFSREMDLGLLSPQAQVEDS
Mast/stem cell growth factor receptor Kit (Homo sapiens), sequence (P10721 whole entry, the tested form may be a part): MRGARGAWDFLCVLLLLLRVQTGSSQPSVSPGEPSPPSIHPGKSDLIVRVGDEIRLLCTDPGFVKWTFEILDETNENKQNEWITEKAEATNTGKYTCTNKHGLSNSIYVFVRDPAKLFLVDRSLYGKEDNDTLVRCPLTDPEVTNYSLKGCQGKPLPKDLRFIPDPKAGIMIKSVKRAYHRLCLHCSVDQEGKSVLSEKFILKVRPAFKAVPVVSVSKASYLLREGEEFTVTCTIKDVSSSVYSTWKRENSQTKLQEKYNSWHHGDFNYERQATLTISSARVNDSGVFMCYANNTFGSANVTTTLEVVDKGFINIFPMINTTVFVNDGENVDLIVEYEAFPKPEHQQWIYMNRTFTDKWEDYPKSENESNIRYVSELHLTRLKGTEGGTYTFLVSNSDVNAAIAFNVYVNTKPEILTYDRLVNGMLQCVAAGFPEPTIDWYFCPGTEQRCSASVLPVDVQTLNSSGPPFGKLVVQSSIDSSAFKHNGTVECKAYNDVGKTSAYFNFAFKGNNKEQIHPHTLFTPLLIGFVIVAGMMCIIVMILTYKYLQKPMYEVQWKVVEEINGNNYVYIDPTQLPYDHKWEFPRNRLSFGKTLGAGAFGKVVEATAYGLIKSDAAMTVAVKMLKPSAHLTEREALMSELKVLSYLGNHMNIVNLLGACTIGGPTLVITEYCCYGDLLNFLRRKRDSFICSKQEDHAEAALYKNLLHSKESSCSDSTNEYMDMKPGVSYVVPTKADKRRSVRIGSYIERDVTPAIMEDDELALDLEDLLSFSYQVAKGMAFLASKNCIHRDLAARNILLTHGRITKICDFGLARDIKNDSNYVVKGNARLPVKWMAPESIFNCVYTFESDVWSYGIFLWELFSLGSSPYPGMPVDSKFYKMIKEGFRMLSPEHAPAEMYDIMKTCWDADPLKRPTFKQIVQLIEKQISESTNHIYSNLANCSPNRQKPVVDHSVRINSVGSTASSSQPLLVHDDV
Insulin receptor (Homo sapiens), sequence (P06213 28-758 limits assumed): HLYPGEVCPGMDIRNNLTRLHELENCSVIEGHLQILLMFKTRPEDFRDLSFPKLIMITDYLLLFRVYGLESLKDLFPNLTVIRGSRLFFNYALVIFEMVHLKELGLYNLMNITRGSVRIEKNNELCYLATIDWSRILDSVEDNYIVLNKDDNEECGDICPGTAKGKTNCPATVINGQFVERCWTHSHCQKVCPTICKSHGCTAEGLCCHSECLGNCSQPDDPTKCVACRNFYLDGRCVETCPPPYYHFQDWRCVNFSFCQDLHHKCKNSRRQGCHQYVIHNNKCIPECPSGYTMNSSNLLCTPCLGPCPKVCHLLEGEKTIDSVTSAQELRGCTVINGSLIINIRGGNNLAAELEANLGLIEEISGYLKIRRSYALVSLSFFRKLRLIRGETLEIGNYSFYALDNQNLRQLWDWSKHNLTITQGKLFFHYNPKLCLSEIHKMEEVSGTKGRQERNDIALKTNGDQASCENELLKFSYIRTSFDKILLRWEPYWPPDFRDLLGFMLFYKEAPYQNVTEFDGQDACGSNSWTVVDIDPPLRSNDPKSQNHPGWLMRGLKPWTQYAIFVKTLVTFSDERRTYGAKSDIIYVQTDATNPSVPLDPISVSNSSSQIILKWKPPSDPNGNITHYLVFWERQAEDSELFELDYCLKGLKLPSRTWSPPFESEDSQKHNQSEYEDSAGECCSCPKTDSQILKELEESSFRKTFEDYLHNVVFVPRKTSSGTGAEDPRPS
Insulin receptor (Homo sapiens), sequence (P06213 763-1382 limits assumed): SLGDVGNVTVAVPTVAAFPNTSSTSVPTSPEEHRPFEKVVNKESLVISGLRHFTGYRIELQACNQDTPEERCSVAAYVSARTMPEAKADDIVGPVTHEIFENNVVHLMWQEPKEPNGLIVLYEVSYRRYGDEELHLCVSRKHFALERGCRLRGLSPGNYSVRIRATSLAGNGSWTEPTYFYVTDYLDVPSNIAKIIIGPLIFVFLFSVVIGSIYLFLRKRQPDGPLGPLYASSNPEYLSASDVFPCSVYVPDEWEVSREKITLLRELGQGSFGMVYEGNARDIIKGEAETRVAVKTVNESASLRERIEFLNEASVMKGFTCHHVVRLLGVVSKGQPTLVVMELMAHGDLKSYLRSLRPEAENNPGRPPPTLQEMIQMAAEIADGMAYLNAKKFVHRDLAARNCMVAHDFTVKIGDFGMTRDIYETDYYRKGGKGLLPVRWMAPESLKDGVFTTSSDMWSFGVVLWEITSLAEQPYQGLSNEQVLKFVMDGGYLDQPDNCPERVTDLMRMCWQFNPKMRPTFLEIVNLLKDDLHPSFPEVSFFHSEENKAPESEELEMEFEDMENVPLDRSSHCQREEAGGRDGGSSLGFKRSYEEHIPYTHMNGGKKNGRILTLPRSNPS
Death-associated protein kinase 1 (Homo sapiens), sequence (P53355 whole entry, looked up, the tested form may be a part): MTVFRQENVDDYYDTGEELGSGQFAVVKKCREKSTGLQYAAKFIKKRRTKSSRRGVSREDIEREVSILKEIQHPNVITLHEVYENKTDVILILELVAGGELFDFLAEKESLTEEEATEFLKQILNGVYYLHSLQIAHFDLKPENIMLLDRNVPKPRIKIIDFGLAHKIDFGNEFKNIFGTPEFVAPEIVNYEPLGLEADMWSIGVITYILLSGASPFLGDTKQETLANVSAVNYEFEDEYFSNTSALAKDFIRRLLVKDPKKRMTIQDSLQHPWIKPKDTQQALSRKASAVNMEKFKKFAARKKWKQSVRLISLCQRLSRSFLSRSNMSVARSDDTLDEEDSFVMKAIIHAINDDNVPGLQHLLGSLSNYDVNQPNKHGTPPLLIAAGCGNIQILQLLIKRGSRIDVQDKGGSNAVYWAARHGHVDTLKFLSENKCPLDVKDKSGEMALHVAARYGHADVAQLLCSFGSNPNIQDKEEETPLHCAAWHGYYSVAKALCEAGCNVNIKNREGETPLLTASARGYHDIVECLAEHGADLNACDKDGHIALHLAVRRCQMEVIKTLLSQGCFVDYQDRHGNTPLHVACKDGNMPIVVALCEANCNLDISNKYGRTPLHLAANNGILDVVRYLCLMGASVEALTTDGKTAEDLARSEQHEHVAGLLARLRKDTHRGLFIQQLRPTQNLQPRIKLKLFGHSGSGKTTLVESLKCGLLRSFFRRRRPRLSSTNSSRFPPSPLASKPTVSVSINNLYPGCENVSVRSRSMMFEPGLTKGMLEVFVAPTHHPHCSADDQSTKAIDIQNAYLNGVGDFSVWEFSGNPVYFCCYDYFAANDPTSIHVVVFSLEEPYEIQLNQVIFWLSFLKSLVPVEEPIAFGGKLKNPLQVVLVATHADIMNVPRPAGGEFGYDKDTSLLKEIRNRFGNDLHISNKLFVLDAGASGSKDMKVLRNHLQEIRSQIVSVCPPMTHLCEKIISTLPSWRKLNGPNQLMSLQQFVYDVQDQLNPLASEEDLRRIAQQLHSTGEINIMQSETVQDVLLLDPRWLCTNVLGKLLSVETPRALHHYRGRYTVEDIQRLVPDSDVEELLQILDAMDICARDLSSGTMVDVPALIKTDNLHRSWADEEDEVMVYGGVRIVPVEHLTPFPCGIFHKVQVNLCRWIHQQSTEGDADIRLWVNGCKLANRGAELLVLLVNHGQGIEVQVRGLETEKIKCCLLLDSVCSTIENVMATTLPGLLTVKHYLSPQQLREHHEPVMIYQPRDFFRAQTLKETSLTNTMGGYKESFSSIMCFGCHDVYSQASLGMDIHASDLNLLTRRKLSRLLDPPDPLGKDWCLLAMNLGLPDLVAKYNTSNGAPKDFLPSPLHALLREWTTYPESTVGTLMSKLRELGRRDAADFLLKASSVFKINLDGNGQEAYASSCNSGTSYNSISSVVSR

For `O=C1NC(=S)S/C1=C\c1csc(-c2ccc(C(F)(F)F)cc2)n1`, the Activity in test [1] is 90%; in test [2] it was 103%; in test [3] it was 101%; in test [4], 102%; in test [5], 101%; in test [6] it was 81%. Further, the ΔTm in test [7] was determined as 6.1 °C.
